Experimental data reported in US20110130397A1, “PYRROLINONE COMPOUNDS AS INHIBITORS OF BACTERIAL PEPTIDYL TRNA HYDROLASE AND USES THEREOF” (priority 2006, published 2011).
Values joined by “and” are separate entries in the source; they are usually repeats but may differ in a detail not shown here. Identical values can stand only once.

Compound | melting point
COCC(=O)C1=C(O)C(=O)N(c2nc3ccc(Cl)cc3s2)C1c1ccccc1F (stereo not drawn) [Compound 441] | 253 to 254 °C
CCOc1ccc2nc(N3C(=O)C(O)=C(C(=O)c4ccc(C)o4)C3c3ccc(O)c(O)c3)sc2c1 (stereo not drawn) [Compound 221] | 259 to 260 °C
COc1cc(C2C(C(=O)c3ccc(C)o3)=C(O)C(=O)N2c2nc3ccc(Cl)cc3s2)cc(OC)c1OC (stereo not drawn) [Compound 605] | 229 to 230 °C
Cc1ccc(C(=O)C2=C(O)C(=O)N(c3ncnc4c3ncn4C3OC(CO)C(O)C3O)C2c2ccccc2F)o1 (stereo not drawn) [Compound 217] | 106 to 109 °C
Cc1ccc(C(=O)C2=C(O)C(=O)N(c3nc4c(Cl)cccc4s3)C2c2ccc3c(c2)OCCO3)o1 (stereo not drawn) [Compound 598] | 251 to 252 °C
Cc1ccc(C(=O)C2=C(O)C(=O)N(c3nc4cccnc4s3)C2c2ccccc2F)o1 (stereo not drawn) [Compound 245] | 227 to 229 °C
O=C(COc1ccccc1)C1=C(O)C(=O)N(c2nc3ccc(F)cc3s2)C1c1ccccc1F (stereo not drawn) [Compound 448] | 197 to 198 °C
Cc1ccc(C(=O)C2=C(O)C(=O)N(c3nc4ccc(Cl)cc4s3)C2c2cccc(OCc3ccccc3)c2)o1 (stereo not drawn) [Compound 475] | 215 to 216 °C and 213 to 214 °C
O=C(C1=C(O)C(=O)N(c2nc3c(Cl)cccc3s2)C1c1ccc(F)cc1)C1CC1 (stereo not drawn) [Compound 457] | 218 to 219 °C
CCOc1ccc2nc(N3C(=O)C(OC(C)=O)=C(C(=O)c4ccc(C)o4)C3c3ccc(OCCOC(C)=O)cc3)sc2c1 (stereo not drawn) [Compound 253] | 114 to 115 °C
Cc1ccc(C(=O)C2=C(O)C(=O)N(c3ccc4ncsc4c3)C2c2ccc(F)cc2)o1 (stereo not drawn) [Compound 565] | 221 to 222 °C
Cc1ccc(C(=O)C2=C(O)C(=O)N(c3nc4ccc(F)cc4s3)C2c2cccc3ccccc23)o1 (stereo not drawn) [Compound 618] | 251 to 252 °C
O=C(C1=C(O)C(=O)N(c2nc3ccc(Cl)cc3s2)C1c1ccccc1F)C1CCC1 (stereo not drawn) [Compound 571] | 262 to 263 °C
Cc1ccc(C(=O)C2=C(O)C(=O)N(c3nc4ccc(F)cc4s3)C2c2ccc(-c3ccccc3)cc2)o1 (stereo not drawn) [Compound 465] | 228 to 231 °C
COc1ccccc1CC(=O)C1=C(O)C(=O)N(c2nc3ccc(F)cc3s2)C1c1ccc(F)cc1 (stereo not drawn) [Compound 485] | 223 to 224 °C
CCOc1ccc2nc(N3C(=O)C(O)=C(C(=O)c4ccc(C)o4)C3c3ccc4ccccc4n3)sc2c1 (stereo not drawn) [Compound 252] | 260 to 261 °C
CCOc1ccc2nc(N3C(=O)C(O)=C(C(=O)c4ccc(C)o4)C3c3cccc(C(=O)OC)c3)sc2c1 (stereo not drawn) [Compound 255] | 228 to 229 °C
Cc1ccc(C(=O)C2=C(O)C(=O)N(c3nc4ccc(Cl)cc4s3)C2c2ccc(OCCCN(C)C)cc2)o1 (stereo not drawn) [Compound 479] | 211 to 213 °C
Cc1ccc(C(=O)C2=C(O)C(=O)N(c3nc4ccc(Cl)cc4s3)C2c2ccc(C)o2)o1 (stereo not drawn) [Compound 608] | 235 to 236 °C
COc1cc(C2C(C(=O)c3ccc(C)o3)=C(O)C(=O)N2c2nc3c(Cl)cccc3s2)cc(OC)c1OC (stereo not drawn) [Compound 607] | 251 to 252 °C
Cc1ccc(C(=O)C2=C(O)C(=O)N(c3nc4ccc(F)cc4s3)C2c2ccc(F)c(F)c2)o1 (stereo not drawn) [Compound 462] | 223 to 224 °C
Cc1ccc(C(=O)C2=C(O)C(=O)N(c3nc4cccnc4s3)C2c2ccc(O)c(C(=O)O)c2)o1 (stereo not drawn) [Compound 248] | 243 to 245 °C

Compound | melting point
CCN(CC)c1ccc(C2C(C(=O)c3ccc(C)o3)=C(O)C(=O)N2c2nc3ccc(Cl)cc3s2)cc1 (stereo not drawn) [Compound 614] | 207 to 210 °C
Cc1ccc(C(=O)C2=C(O)C(=O)N(c3nc4c(Cl)cccc4s3)C2c2ccc(Oc3ccccc3)cc2)o1 (stereo not drawn) [Compound 469] | 208 to 209 °C
CCOc1ccc2nc(N3C(=O)C(O)=C(C(=O)c4ccc(C)o4)C3c3cccs3)sc2c1 (stereo not drawn) [Compound 257] | 235 to 236 °C
Cc1ccc(C(=O)C2=C(O)C(=O)N(c3nc4ccc(Cl)cc4s3)C2c2ccc3ccccc3c2)o1 (stereo not drawn) [Compound 599] | 255 to 257 °C
COC(=O)c1cccc(C2C(C(=O)c3ccc(C)o3)=C(O)C(=O)N2c2nc3cccnc3s2)c1 (stereo not drawn) [Compound 249] | 220 to 221 °C
O=C(C1=C(O)C(=O)N(c2nc3ccc(Cl)cc3s2)C1c1ccc(F)cc1)C1CC1 (stereo not drawn) [Compound 452] | 229 to 230 °C
Cc1ccc(C(=O)C2=C(O)C(=O)N(Cc3cccs3)C2c2ccccc2F)o1 (stereo not drawn) [Compound 504] | 193 to 194 °C
COCCOc1ccc(CCC(=O)C2=C(O)C(=O)N(c3nc4c(Cl)cccc4s3)C2c2ccccc2F)cc1 (stereo not drawn) [Compound 577] | 179 to 180 °C
CC(=O)NC(CC(C)C)C(=O)C1=C(O)C(=O)N(c2nc3ccc(F)cc3s2)C1c1ccc(Cl)cc1 (stereo not drawn) [Compound 649] | 266 to 269 °C
O=C(C1=C(O)C(=O)N(c2nc3ccc(F)cc3s2)C1c1ccc(F)cc1)c1nccs1 (stereo not drawn) [Compound 438] | 320 to 321 °C
CCOC(=O)CCC(=O)C1=C(O)C(=O)N(c2nc3ccc(F)cc3s2)C1c1ccccc1F (stereo not drawn) [Compound 496] | 184 to 185 °C
COC1=C(C(C)=O)C(c2ccccc2F)N(c2nc3ccc(Cl)cc3s2)C1=O (stereo not drawn) [Compound 430] | 235 to 236 °C
COc1cccc(C2C(C(=O)c3ccc(C)o3)=C(O)C(=O)N2c2nc3ccc(F)cc3s2)c1 (stereo not drawn) [Compound 603] | 201 to 202 °C
CCCCCC1C(C(=O)c2ccc(C)o2)=C(O)C(=O)N1c1nc2ccc(S(C)(=O)=O)cc2s1 (stereo not drawn) [Compound 181] | 171 to 173 °C
COc1ccc2nc(N3C(=O)C(O)=C(C(=O)c4ccc(C)o4)C3c3cccc(O)c3)sc2c1 (stereo not drawn) [Compound 155] | 263 to 264 °C
O=C(C1=C(O)C(=O)N(c2nc3ccc(F)cc3s2)C1c1ccccc1F)C1CC1 (stereo not drawn) [Compound 454] | 234 to 235 °C
COCCOc1ccc(CCC(=O)C2=C(O)C(=O)N(c3nc4ccc(Cl)cc4s3)C2c2ccccc2F)cc1 (stereo not drawn) [Compound 575] | 219 to 220 °C
Cc1ccc(C(=O)C2=C(O)C(=O)N(c3nc4ccc(F)cc4s3)C2c2ccc3c(c2)OCCO3)o1 (stereo not drawn) [Compound 597] | 236 to 237 °C
CCc1ccc2nc(N3C(=O)C(O)=C(C(=O)c4ccc(C)o4)C3c3ccccc3)sc2c1 (stereo not drawn) [Compound 130] | 204 to 206 °C
Cc1ccc(C(=O)C2=C(O)C(=O)N(Cc3ccco3)C2c2ccc(F)cc2)o1 (stereo not drawn) [Compound 503] | 213 to 214 °C
CCOc1ccc2nc(N3C(=O)C(O)=C(C(=O)c4ccc(C)o4)C3c3cccc(OCc4ccccc4)c3)sc2c1 (stereo not drawn) [Compound 186] | 214 to 215 °C
Cc1ccc(C(=O)C2=C(O)C(=O)N(c3ncnc4[nH]cnc34)C2c2cccc([N+](=O)[O-])c2)o1 (stereo not drawn) [Compound 224] | 266 to 267 °C

Compound | melting point
Cc1ccc(C(=O)C2=C(O)C(=O)N(c3nc4ccc(F)cc4s3)C2c2ccc(OCCO)cc2)o1 (stereo not drawn) [Compound 478] | 134 to 135 °C
Cc1ccc(C(=O)C2=C(O)C(=O)N(c3nc4ccc([N+](=O)[O-])cc4s3)C2c2ccccc2F)o1 (stereo not drawn) [Compound 152] | 255 to 257 °C
CCc1ccc2nc(N3C(=O)C(O)=C(C(=O)c4ccc(C)o4)C3c3ccccc3F)sc2c1 (stereo not drawn) [Compound 138] | 165 to 169 °C
COc1ccccc1CC(=O)C1=C(O)C(=O)N(c2nc3ccc(Cl)cc3s2)C1c1ccccc1F (stereo not drawn) [Compound 481] | 186 to 188 °C
CCOC(=O)CCC(=O)C1=C(O)C(=O)N(c2nc3ccc(Cl)cc3s2)C1c1ccc(Cl)cc1 (stereo not drawn) [Compound 495] | 244 to 245 °C
CCOc1ccc2nc(N3C(=O)C(O)=C(C(=O)c4ccc(C)o4)C3c3ccccc3F)sc2c1 (stereo not drawn) [Compound 183] | 251 to 252 °C
O=C(COc1ccccc1Cl)C1=C(O)C(=O)N(c2nc3c(Cl)cccc3s2)C1c1ccc(F)cc1 (stereo not drawn) [Compound 460] | 143 to 145 °C
CC(=O)C1=C(O)C(=O)N(c2nc3ccc(F)cc3s2)C1c1ccc(F)cc1 (stereo not drawn) [Compound 423] | 238 to 239 °C
COc1ccccc1CC(=O)C1=C(O)C(=O)N(c2nc3ccc(Cl)cc3s2)C1c1ccc(Cl)cc1 (stereo not drawn) [Compound 487] | 247 to 248 °C
Cc1ccc(C(=O)C2=C(O)C(=O)N(c3nc4ccc(S(C)(=O)=O)cc4s3)C2C2CCCCC2)o1 (stereo not drawn) [Compound 179] | 208 to 209 °C
CCOc1ccc2nc(N3C(=O)C(O)=C(C(=O)c4ccc(C)o4)C3c3cccc([N+](=O)[O-])c3)sc2c1 (stereo not drawn) [Compound 184] | 256 to 257 °C
Cc1ccc(C(=O)C2=C(O)C(=O)N(C(CO)CO)C2c2ccccc2F)o1 (stereo not drawn) [Compound 434] | 74 to 75 °C
CC(=O)c1sc(N2C(=O)C(O)=C(C(=O)c3ccc(C)o3)C2c2ccccc2F)nc1C (stereo not drawn) [Compound 159] | 244 to 245 °C
O=C(C1=C(O)C(=O)N(c2nc3c(Cl)cccc3s2)C1c1ccc(F)cc1)c1nccs1 (stereo not drawn) [Compound 440] | 303 to 304 °C
Cc1ccc(C(=O)C2=C(O)C(=O)N(CCc3c[nH]c4ccccc34)C2c2ccc(F)cc2)o1 (stereo not drawn) [Compound 594] | 157 to 158 °C
COCC(=O)C1=C(O)C(=O)N(c2nc3ccc(F)cc3s2)C1c1ccc(F)cc1 (stereo not drawn) [Compound 444] | 249 to 250 °C
CCOc1ccc2nc(N3C(=O)C(O)=C(C(=O)c4ccc(C)o4)C3c3ccc(-c4cccc([N+](=O)[O-])c4)o3)sc2c1 (stereo not drawn) [Compound 256] | 187 to 188 °C
Cc1ccc(C(=O)C2=C(O)C(=O)N(c3ncc(C)s3)C2c2ccccc2F)o1 (stereo not drawn) [Compound 161] | 251 to 252 °C
Cc1ccc(C(=O)C2=C(O)C(=O)N(c3nc4ccc(Cl)cc4s3)C2c2cccc(Oc3ccccc3)c2)o1 (stereo not drawn) [Compound 473] | 226 to 227 °C
O=C(C1=C(O)C(=O)N(c2nc3ccc(F)cc3s2)C1c1ccc(F)cc1)C1CC1 (stereo not drawn) [Compound 455] | 221 to 223 °C
Cc1ccc(C(=O)C2=C(O)C(=O)N(c3nc4c(Cl)cccc4s3)C2c2ccc3ccccc3c2)o1 (stereo not drawn) [Compound 601] | 261 to 262 °C
Cc1ccc(C(=O)C2=C(O)C(=O)N(Cc3cccs3)C2c2ccc(F)cc2)o1 (stereo not drawn) [Compound 505] | 225 to 226 °C
